Reference: the CheMixHub viscosity set
± gives the uncertainty stated by the source.

Test: xn = mol fraction of the nth substance listed

CC(C)CCC[C@@H](C)[C@H]1CC[C@H]2[C@@H]3CC=C4C[C@@H](O)CC[C@]4(C)[C@H]3CC[C@]12C + c1ccccc1
viscosity [mPa·s], 101.33 kPa
Details	x1 = 0.00346	x1 = 0.00447	x1 = 0.00753	x1 = 0.008796	x1 = 0.01276	x1 = 0.01496	x1 = 0.01612	x1 = 0.01894	x1 = 0.02302
298 K	0.617 ± 0.008	0.624 ± 0.008	0.643 ± 0.008	0.651 ± 0.008	0.681 ± 0.009	0.698 ± 0.009	0.708 ± 0.009	0.733 ± 0.009	0.773 ± 0.009
303 K	0.574 ± 0.007	0.579 ± 0.007	0.598 ± 0.008	0.607 ± 0.008	0.633 ± 0.008	0.647 ± 0.008	0.657 ± 0.008	0.677 ± 0.008	0.714 ± 0.009
313 K	0.506 ± 0.007	0.509 ± 0.007	0.525 ± 0.007	0.529 ± 0.007	0.552 ± 0.007	0.565 ± 0.007	0.571 ± 0.007	0.588 ± 0.008	0.614 ± 0.008
323 K	0.448 ± 0.006	0.453 ± 0.006	0.466 ± 0.006	0.472 ± 0.006	0.489 ± 0.007	0.499 ± 0.007	0.504 ± 0.007	0.517 ± 0.007	0.541 ± 0.007

CCCCCCCCCCCC + c1ccccc1
Details	viscosity [mPa·s]
295.15 K, 100 kPa, x2 = 0.3903	1.047 ± 0.21
298 K, 101 kPa, x2 = 0.5	0.9053 ± 0.024
298.15 K, 101.33 kPa, x1 = 0.04733	0.6259 ± 0.0056
298.15 K, 101.33 kPa, x1 = 0.1084	0.6476 ± 0.0057
298.15 K, 101.33 kPa, x1 = 0.2036	0.6913 ± 0.0061
298.15 K, 101.33 kPa, x1 = 0.2978	0.7491 ± 0.0065
298.15 K, 101.33 kPa, x1 = 0.4139	0.8308 ± 0.0071
298.15 K, 101.33 kPa, x1 = 0.5192	0.9153 ± 0.0077
298.15 K, 101.33 kPa, x1 = 0.6155	0.9976 ± 0.0083
298.15 K, 101.33 kPa, x1 = 0.7291	1.102 ± 0.0091
298.15 K, 101.33 kPa, x1 = 0.8011	1.168 ± 0.0096
298.15 K, 101.33 kPa, x1 = 0.9231	1.291 ± 0.01
298.38 K, 101.3 kPa, x1 = 0.5002	0.8885 ± 0.011
298.52 K, 101.3 kPa, x1 = 0.2502	0.7103 ± 0.0087
298.76 K, 101.3 kPa, x1 = 0.7496	1.097 ± 0.013
298.77 K, 101.3 kPa, x1 = 0.7496	1.096 ± 0.013
298.79 K, 101.3 kPa, x1 = 0.7496	1.095 ± 0.013
299.49 K, 101.3 kPa, x1 = 0.5002	0.8746 ± 0.011
308.08 K, 101.3 kPa, x1 = 0.5002	0.775 ± 0.0094
308.51 K, 101.3 kPa, x1 = 0.2502	0.6242 ± 0.0076
308.9 K, 101.3 kPa, x1 = 0.7496	0.9482 ± 0.011
318 K, 101 kPa, x2 = 0.5	0.6904 ± 0.018
322.92 K, 101.3 kPa, x1 = 0.5002	0.6451 ± 0.0078
322.94 K, 101.3 kPa, x1 = 0.2502	0.5262 ± 0.0064

CCCCCCCCCCO + c1ccccc1
viscosity [mPa·s], 100 kPa
Details	x2 = 0.0822	x2 = 0.1563	x2 = 0.2472	x2 = 0.3611	x2 = 0.4531	x2 = 0.5602	x2 = 0.6533	x2 = 0.7528	x2 = 0.8574	x2 = 0.9496
293.15 K	12.2 ± 0.61	10.48 ± 0.53	8.738 ± 0.44	6.833 ± 0.34	5.51 ± 0.28	4.154 ± 0.21	3.087 ± 0.16	2.082 ± 0.11	1.318 ± 0.068	0.839 ± 0.044
303.15 K	8.134 ± 0.41	6.872 ± 0.35	5.555 ± 0.28	4.197 ± 0.21	3.332 ± 0.17	2.5 ± 0.1	1.888 ± 0.096	1.361 ± 0.069	0.925 ± 0.047	0.656 ± 0.034
313.15 K	5.704 ± 0.29	4.746 ± 0.24	3.723 ± 0.19	2.709 ± 0.14	2.089 ± 0.11	1.514 ± 0.077	1.132 ± 0.058	0.877 ± 0.045	0.673 ± 0.034	0.546 ± 0.028
323.15 K	4.088 ± 0.21	3.345 ± 0.17	2.548 ± 0.13	1.757 ± 0.089	1.34 ± 0.07	1.012 ± 0.051	0.796 ± 0.041	0.644 ± 0.033	0.536 ± 0.027	0.461 ± 0.024
